Where two headings read alike, the source gives them in different places.

The text below walks through data of PMC3545233 (Scientific Reports, 2013).

The target in one test is recombinant hAChE (Homo sapiens, UniProt P22303). As to the kind of experiment: Time-course and dilution experiments of AChE inhibition. Type of test: biochemical.
Test [1] has as its target T1, recombinant agAP-AChE (Anopheles gambiae, UniProt Q869C3). Described as above. Type of test: biochemical, Anopheles gambiae sensu stricto. As to conditions: for inhibition at 50 µM: read-out: inhibition of the enzyme activity, agAP-AChE, 50 μM NEM.
Test [2] addresses T1, recombinant agAP-AChE. As to the kind of experiment: biochemical. Also noted: species or system Anopheles gambiae sensu stricto.
Test [3] deals with T1, recombinant agAP-AChE. Type of test: biochemical, Anopheles gambiae sensu stricto. As to conditions: ≤15 min, paraoxon 333–2000 nM.

recombinant hAChE, sequence (P22303 32-614): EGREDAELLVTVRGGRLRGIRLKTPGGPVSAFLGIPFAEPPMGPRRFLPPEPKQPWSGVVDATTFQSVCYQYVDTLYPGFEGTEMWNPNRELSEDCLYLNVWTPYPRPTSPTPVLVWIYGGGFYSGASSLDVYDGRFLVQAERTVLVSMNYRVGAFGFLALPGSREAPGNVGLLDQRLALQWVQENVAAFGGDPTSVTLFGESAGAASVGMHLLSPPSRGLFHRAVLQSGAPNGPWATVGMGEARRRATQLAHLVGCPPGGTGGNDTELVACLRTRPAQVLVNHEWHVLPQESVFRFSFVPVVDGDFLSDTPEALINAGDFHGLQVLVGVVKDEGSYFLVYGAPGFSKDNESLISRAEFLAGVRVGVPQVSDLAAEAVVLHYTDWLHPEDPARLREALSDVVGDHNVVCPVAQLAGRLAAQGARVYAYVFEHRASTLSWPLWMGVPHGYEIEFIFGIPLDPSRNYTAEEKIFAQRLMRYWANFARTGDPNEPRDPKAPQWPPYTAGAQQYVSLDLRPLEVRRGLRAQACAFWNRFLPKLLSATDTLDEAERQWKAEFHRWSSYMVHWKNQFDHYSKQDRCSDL
T1 sequence (Q869C3 39-737): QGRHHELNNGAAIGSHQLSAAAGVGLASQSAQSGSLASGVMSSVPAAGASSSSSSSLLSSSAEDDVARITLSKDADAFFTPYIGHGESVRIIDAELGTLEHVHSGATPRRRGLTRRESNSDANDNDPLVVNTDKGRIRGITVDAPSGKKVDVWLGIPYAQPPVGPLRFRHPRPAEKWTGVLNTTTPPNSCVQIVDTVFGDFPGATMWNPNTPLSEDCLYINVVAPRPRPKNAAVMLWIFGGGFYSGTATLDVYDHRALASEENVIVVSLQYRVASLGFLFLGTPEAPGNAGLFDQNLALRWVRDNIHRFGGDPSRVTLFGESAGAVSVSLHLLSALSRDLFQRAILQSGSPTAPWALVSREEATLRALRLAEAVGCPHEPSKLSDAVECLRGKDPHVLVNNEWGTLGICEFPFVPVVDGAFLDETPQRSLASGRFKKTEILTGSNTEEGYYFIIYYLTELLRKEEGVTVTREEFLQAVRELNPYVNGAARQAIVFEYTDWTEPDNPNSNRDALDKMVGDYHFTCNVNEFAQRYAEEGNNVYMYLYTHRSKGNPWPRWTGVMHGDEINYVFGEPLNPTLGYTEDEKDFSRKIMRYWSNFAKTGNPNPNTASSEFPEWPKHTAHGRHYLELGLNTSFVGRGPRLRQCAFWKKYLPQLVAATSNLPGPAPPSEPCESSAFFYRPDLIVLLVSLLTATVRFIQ

On to `CCN1C(=O)CCC1=O` [1-ethylpyrrolidine-2,5-dione, reference compound], for which the “irreversible or reversible inhibition” value is given as “did not irreversibly or reversibly inhibit” on recombinant hAChE (inhibitor concentrations up to 10 mM, data not shown) and “did not irreversibly or reversibly inhibit” on recombinant agAP-AChE [1] (agAP-AChE, inhibitor concentrations up to 10 mM, data not shown).

For `CCN1C(=O)C=CC1=O` [NEM, N-ethylmaleimide, reference compound], the “irreversible inhibition (time-course and dilution experiments)” value (from here on “irreversible inhibition”) on recombinant agAP-AChE [1] (agAP-AChE) is “inability of NEM to irreversibly inhibit agAP-AChE”. For the same compound, the values for the inhibition at 50 µM at recombinant agAP-AChE [1] (30 minutes) and at recombinant agAP-AChE [1] (immediately) were 40 ± 1% and 36 ± 2%, respectively.

In the case of `O=C1C=CC(=O)N1CCCCCCCCCCCCCCCCCCCC[n+]1ccccc1.[Br-]` [PM20, 1-(20-(2,5-Dioxo-2,5-dihydro-1H-pyrrol-1-yl)eicosyl)pyridinium bromide], the Ki on recombinant agAP-AChE [2] amounted to 0.4 µM. Moreover, the “irreversible inhibition” value on recombinant hAChE is given as “not hAChE”; on recombinant agAP-AChE [1] (agAP-AChE), “irreversibly inhibited agAP-AChE”. On recombinant agAP-AChE [3], the “kinact/KI fold higher than that of paraoxon” value stood at 239 fold. For the same compound, the “decrease of the enzyme activity” value at recombinant agAP-AChE [1] (agAP-AChE, combination of 50 μM NEM and 6.7 nM PM20 for 30 minutes) was 94 ± 3%. The inhibition at 0.0067 µM at recombinant agAP-AChE [1] (read-out: enzyme activity inhibited, agAP-AChE, incubated with 50 μM NEM, then treated with 6.7 nM PM20 for 30 minutes) came out at 96 ± 4%.

Consider `O=C([O-])C(F)(F)F.O=C1CCC(=O)N1CCCCCCCCCCCCCCCCCCCC[n+]1ccccc1` [PMS20, 1-(20-(2,5-Dioxopyrrolidin-1-yl)eicosyl)pyridin-1-ium 2,2,2-trifluoroacetate], for which the Ki on recombinant agAP-AChE [2] is 0.42 µM. In addition, the “irreversible inhibition” value at recombinant hAChE and on recombinant agAP-AChE [1] (agAP-AChE) was “irreversibly inhibited neither” throughout.

Regarding `Cl.O=C1C=CC(=O)N1CCCCCCCCCCCCCCCCCCN1CCCCC1` [PY18, 1-(18-(Piperidin-1-yl)octadecyl)-1H-pyrrole-2,5-dione hydrochloride], the figures for the “irreversible inhibition” value at recombinant hAChE and on recombinant agAP-AChE [1] (agAP-AChE) were “not hAChE” and “irreversibly inhibited agAP-AChE”, respectively.

As to `Cl.O=C1CCC(=O)N1CCCCCCCCCCCCCCCCCCN1CCCCC1` [PYS18, 1-(18-(Piperidin-1-yl)octadecyl)pyrrolidine-2,5-dione hydrochloride], the Ki on recombinant agAP-AChE [2] was determined as 26.2 µM. Besides, the “irreversible inhibition” value at recombinant hAChE and on recombinant agAP-AChE [1] (agAP-AChE) was “irreversibly inhibited neither” in each case.

For the compound `CCOP(=O)(OCC)Oc1ccc([N+](=O)[O-])cc1` [Paraoxon, paraoxon, reference compound], the “irreversible inhibition” value on recombinant hAChE and on recombinant agAP-AChE [1] (agAP-AChE) was “irreversibly inhibited both enzymes” each time.

One may read the Ki as the dissociation constant of the complex between target and ligand, obtained from inhibition or displacement.
